# Laboratory results taken from ChEMBL document CHEMBL1201862, “PubChem BioAssay data set” (2004).
#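 1) Cells in 96-well plates. 2) Compound, 48 h, 5 concentrations. 3) Linear interpolation between surrounding doses. 4) Unreached endpoint = highest concentration. At the GI50, growth is halved.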 Activity calls are given as the source filed them. Rule as the data show it: active = GI50 up to about 1.1 µM and inactive = higher.
# How the values were obtained:
# Assay in all cases: NCI-60 cell line screen, 48 h
# [1] = tested on: UO-31
# [2] = tested on: UACC-62
# [3] = tested on: NCI/ADR-RES
# [4] = tested on: Hs-578T
# [5] = tested on: HOP-92
# [6] = tested on: OVCAR-5
# [7] = tested on: Malme-3M
# [8] = tested on: OVCAR-4
# [9] = tested on: MDA-MB-231
# [10] = tested on: U-251
# [11] = tested on: IGROV-1
# [12] = tested on: LOX IMVI
# [13] = tested on: NCI-H522
# [14] = tested on: 786-0
# [15] = tested on: COLO 205
# [16] = tested on: A549
# [17] = tested on: KM12
# [18] = tested on: TK-10
# [19] = tested on: MOLT-4
# [20] = tested on: NCI-H226
SMILES,GI50 [1],GI50 [2],GI50 [3],GI50 [4],GI50 [5],GI50 [6],GI50 [7],GI50 [8],GI50 [9],GI50 [10],GI50 [11],GI50 [12],GI50 [13],GI50 [14],GI50 [15],GI50 [16],GI50 [17],GI50 [18],GI50 [19],GI50 [20]
Cc1ccc(S(=O)(=O)SC(C)(C)C)cc1,> 100 µM (inactive),19.9 µM (inactive),32.6 µM (inactive),34.2 µM (inactive),63 µM (inactive),> 48.4 µM (inactive),> 44.4 µM (inactive),22.2 µM (inactive),24.7 µM (inactive),> 100 µM (inactive),18.9 µM (inactive),21.9 µM (inactive),14.7 µM (inactive),16.9 µM (inactive),47.6 µM (inactive),> 100 µM (inactive),45.2 µM (inactive),40.3 µM (inactive),18.2 µM (inactive),> 86.7 µM (inactive)
CCCCN(CCCC)CC(=O)c1ccc2cc(Cl)c3ccccc3c2c1,20.6 µM (inactive),32.6 µM (inactive),99.3 µM (inactive),35.7 µM (inactive),33.5 µM (inactive),51.1 µM (inactive),37.6 µM (inactive),24.2 µM (inactive),31.4 µM (inactive),19.6 µM (inactive),20.9 µM (inactive),23.4 µM (inactive),16.4 µM (inactive),57.4 µM (inactive),14.9 µM (inactive),27.2 µM (inactive),32 µM (inactive),50 µM (inactive),31.5 µM (inactive),25.3 µM (inactive)
CCCCCCCCCC[C@H](O)[C@H]1CC[C@H]([C@H]2CC[C@H]([C@H](O)CC[C@H](O)CCCCCCC[C@@H](O)CC3=C[C@H](C)OC3=O)O2)O1,2.02 µM (inactive),> 10 µM (inactive),1.61 µM (inactive),> 10 µM (inactive),6.93 µM (inactive),> 10 µM (inactive),25.8 µM (inactive),41.4 µM (inactive),> 10 µM (inactive),> 10 µM (inactive),15.7 µM (inactive),7.46 µM (inactive),10.7 µM (inactive),25.1 µM (inactive),12.2 µM (inactive),4.6 µM (inactive),9.14 µM (inactive),31 µM (inactive),2.96 µM (inactive),2.47 µM (inactive)
O=c1c2c(no[n+]2[O-])c2ccccc2n1-c1ccccc1,11.9 µM (inactive),4.05 µM (inactive),14.6 µM (inactive),18.6 µM (inactive),8.47 µM (inactive),14.8 µM (inactive),5.7 µM (inactive),6.18 µM (inactive),12.6 µM (inactive),5.19 µM (inactive),3.75 µM (inactive),1.69 µM (inactive),1.73 µM (inactive),2.89 µM (inactive),12.2 µM (inactive),17.9 µM (inactive),13.9 µM (inactive),17.3 µM (inactive),3.03 µM (inactive),9.93 µM (inactive)
CC(C)n1c2c([n+](C)c1/C=C/c1ccccc1)C(=O)c1ccccc1C2=O,3.55 µM (inactive),0.198 µM (active),48.6 µM (inactive),1.91 µM (inactive),0.309 µM (active),0.501 µM (active),0.107 µM (active),0.0278 µM (active),0.166 µM (active),0.147 µM (active),0.0157 µM (active),0.0721 µM (active),0.0201 µM (active),0.259 µM (active),< 0.01 µM (active),0.587 µM (active),0.132 µM (active),0.538 µM (active),0.0504 µM (active),0.791 µM (active)
COc1ccc([N+](=O)[O-])c2c(NCCCN(C)C)ccnc12,4.39 µM (inactive),3.61 µM (inactive),15.8 µM (inactive),6.35 µM (inactive),1.78 µM (inactive),5.9 µM (inactive),2.43 µM (inactive),1.51 µM (inactive),8.3 µM (inactive),4.93 µM (inactive),1.66 µM (inactive),6.71 µM (inactive),1.46 µM (inactive),8.36 µM (inactive),2.39 µM (inactive),3.37 µM (inactive),7 µM (inactive),10.2 µM (inactive),1.8 µM (inactive),7.31 µM (inactive)
COc1cc(CCNC2=CC(=O)c3nc[nH]c3C2=O)ccc1O,40.3 µM (inactive),19.2 µM (inactive),> 100 µM (inactive),25.2 µM (inactive),25.3 µM (inactive),18.6 µM (inactive),13.1 µM (inactive),15.4 µM (inactive),30.9 µM (inactive),23.7 µM (inactive),23.2 µM (inactive),19 µM (inactive),22.7 µM (inactive),35.7 µM (inactive),22.6 µM (inactive),26.6 µM (inactive),27.3 µM (inactive),36.1 µM (inactive),32.6 µM (inactive),31.5 µM (inactive)
C/C(=N/NC(=S)N1CCCCC1)c1ccccc1O,> 31.6 µM (inactive),> 31.6 µM (inactive),28.2 µM (inactive),20.1 µM (inactive),> 31.6 µM (inactive),> 31.6 µM (inactive),> 31.6 µM (inactive),> 31.6 µM (inactive),> 100 µM (inactive),> 31.6 µM (inactive),> 41.2 µM (inactive),> 31.6 µM (inactive),26.5 µM (inactive),> 31.6 µM (inactive),23.4 µM (inactive),> 31.6 µM (inactive),26.1 µM (inactive),> 31.6 µM (inactive),> 31.6 µM (inactive),> 31.6 µM (inactive)
C[C@H](C(=O)N1C(=O)O[C@@H](c2ccccc2)[C@H]1C)[C@H](c1ccccc1)N(Cc1ccccc1)OC(=O)c1ccccc1,34.8 µM (inactive),28.6 µM (inactive),30.3 µM (inactive),84.5 µM (inactive),24.4 µM (inactive),68.1 µM (inactive),> 100 µM (inactive),21 µM (inactive),94 µM (inactive),31.9 µM (inactive),29.2 µM (inactive),45.3 µM (inactive),29.1 µM (inactive),57.4 µM (inactive),38.5 µM (inactive),32.9 µM (inactive),49.3 µM (inactive),90.6 µM (inactive),22.1 µM (inactive),38.4 µM (inactive)
CCc1n[nH]c(=O)n1N=C(c1ccccc1)c1ccccc1,> 100 µM (inactive),> 100 µM (inactive),> 100 µM (inactive),> 100 µM (inactive),> 100 µM (inactive),58.1 µM (inactive),> 100 µM (inactive),> 100 µM (inactive),> 100 µM (inactive),> 100 µM (inactive),> 100 µM (inactive),> 100 µM (inactive),> 100 µM (inactive),> 100 µM (inactive),> 100 µM (inactive),> 100 µM (inactive),> 100 µM (inactive),> 100 µM (inactive),> 100 µM (inactive),> 100 µM (inactive)
CC(=O)C(C(C)=O)[C@@H]1OC(C)(C)O[C@@H]1[C@H]1COC(C)(C)O1,55.2 µM (inactive),> 100 µM (inactive),55.6 µM (inactive),28.4 µM (inactive),> 100 µM (inactive),87.9 µM (inactive),22.5 µM (inactive),51.1 µM (inactive),> 100 µM (inactive),42.8 µM (inactive),35.6 µM (inactive),87.1 µM (inactive),26.9 µM (inactive),32.1 µM (inactive),43.5 µM (inactive),> 100 µM (inactive),41.4 µM (inactive),> 100 µM (inactive),47.5 µM (inactive),> 100 µM (inactive)
CCOP(=O)(OCC)C(c1ccccc1)N(C(=O)NC(F)(F)F)c1ccc(C)cc1 (stereo not given),> 100 µM (inactive),> 100 µM (inactive),> 100 µM (inactive),69.5 µM (inactive),19.1 µM (inactive),> 100 µM (inactive),> 100 µM (inactive),> 100 µM (inactive),> 100 µM (inactive),> 100 µM (inactive),> 100 µM (inactive),> 100 µM (inactive),> 100 µM (inactive),> 100 µM (inactive),> 100 µM (inactive),> 100 µM (inactive),> 100 µM (inactive),> 100 µM (inactive),> 100 µM (inactive),> 100 µM (inactive)
COc1ccc(/C=C/C(=O)NCC(NC(=O)/C=C/c2ccc(OC)c(OC)c2)C(=O)O)cc1OC (stereo not given),> 100 µM (inactive),> 100 µM (inactive),0.0169 µM (active),> 100 µM (inactive),0.0163 µM (active),> 100 µM (inactive),> 100 µM (inactive),> 100 µM (inactive),> 100 µM (inactive),> 100 µM (inactive),< 0.01 µM (active),> 100 µM (inactive),> 100 µM (inactive),> 100 µM (inactive),> 100 µM (inactive),> 100 µM (inactive),> 100 µM (inactive),> 100 µM (inactive),> 100 µM (inactive),> 100 µM (inactive)
O=c1cc(/N=N\c2ccc(Cl)cc2)[nH]c(=O)[nH]1,4.82 µM (inactive),3.48 µM (inactive),7.4 µM (inactive),5.68 µM (inactive),2.07 µM (inactive),13.6 µM (inactive),3.01 µM (inactive),4.42 µM (inactive),3.6 µM (inactive),4.81 µM (inactive),3.44 µM (inactive),1.57 µM (inactive),1.71 µM (inactive),1.66 µM (inactive),2.33 µM (inactive),10.1 µM (inactive),5.27 µM (inactive),7.55 µM (inactive),2.9 µM (inactive),12.9 µM (inactive)
